Test results reported in patent publication EP1310250A1, “Use of the compound 2-methoxyphenyl-1-methyl-5P-methylbenzoyl-pyrrol-2-acetamido acetate for the production of an antiinflammatory drug with prevention of gastric hypersecretion and renal impairment” (MEDOSAN Ricerca S.r.l., priority 1997, dated 1999).
“And” between values parts separate entries of the source, which are not always exact repeats. Identical values can stand only once. Marks after values point to notes of the source that are not given here.

Legend:
[1] = test system: carrageenin-induced paw oedema; experiment: Determination of ID50, carrageenin-induced paw oedema; type: in vivo, rat; conditions: five times the oral ID50 for oedema inhibition, 2 h after carrageenin
Protocol: ID50, relative to the products under examination (considered in table 1), has been evaluated using the anti-inflammatory response to carrageenin-induced paw oedema (according to Wong et al, J Pharmacol Exp, 1973:1855; pages 127-138). The products, suspended in 1% CMC, were administered orally in a total volume of 5 ml/rat. 1 h later, 0.1 ml of 1% carrageenin sterile solution was injected into the hind subplantar aponeurosis. Volume of the paw was measured immediately prior to injection of the phlogogen and 2 h thereafter, by means of a plethysmograph. The percentage of inhibition of oedema was calculated as follows: 1 - ΔV treated/ΔV control x 100 [formula] where ΔV = final V - initial V.

[2] = test system: Adjuvant arthritis; experiment: Adjuvant arthritis: joint inflammation and patellar bone erosion; type: in vivo, rats; conditions: patellar bone mass; MED 15 25, 50, 100mg/kg, piroxicam 3mg/kg
Protocol: The drugs were administered daily by oral gavage for 4 days (day 0-3); piroxicam and MED 15 were dissolved in 5% Gum arabic + 0.01% Tween 80, and administered in a volume of 0.5ml. Piroxicam was administered as 3mg/kg and MED 15 was administered as 25, 50 and 100mg/kg doses. Table 8 bis illustrating dosage regimes. L=left stifle joint, R=Right stifle joint.
Under halothane anaesthesia, rats received 200µg of heat-killed finely ground Mycobactyerium tubercolosis in 25µl (80mg/10ml sterile saline) injected intra-articulary into the left stifle joint. The contralateral joint received 25µl 0.9% sterile saline. Control animals received 25µl of 0.9% sterile saline in both knees. SGE 50µl microsyringes with a volume lock calibrated at 25µl were used with 30G stainless steel needles. Solutions were prepared sterile, and aseptic technique was used throughout, with sterilisation of syringes between groups.
The rats were killed by carbon dioxide suffocation. The body weight was noted and the skin overlying the stifle joints was divided and the joint diameters assessed in mm using Mitutoyo vernier callipers (530-312, 0.02mm).
The patellae were dissected, weighed (Sartorius, 0.01mg) and then immersed in 1ml digestion buffer (see below) to remove soft tissue.
Digestive buffer was prepared fresh to the following formula; disodium hydrogen orthophosphate 20mM, EDTA 1mM and diothiothreitol at 2mM. […]

[3] = test system: rat gastric mucosa; conditions: male, Wistar, in vivo, po, 4 days
Protocol: The animals entered in the trial, randomized and divided into groups of 6 rats each, were fasted for 16 h prior to treatment, with access to water ad libitum. They were re-fed 1 h after drug administration. The compound 2-methoxyphenyl-1-methyl-5p-methylbenzoyl-pyrrol-2-acetamido acetate and the other reference NSAIDs, suspended in 1% carboxymethylcellulose (CMC) solution, were orally administered by gastric gavage in a volume of 6ml/kg for four consecutive days. Controls received the vehicle in the same way as the treated animals. 4 h after the last administration the animals were killed by ether overdose; the stomachs were removed, rinsed with 10 ml of saline and immersed in 1% formalin. They were later opened along the greater curvature and the mucosa examined for lesions.
The seriousness of the lesion was quantified according to a scale graduated from 1 to 3 according to the size of the lesions: 1= ulcer < 1mm; 2= ulcer 1-2mm; 3= ulcer > 2mm. The total sum was divided by 10 to obtain the "erosion index". The gastric lesions were evaluated by two independent investigators under blind conditions according to Main & Whittle method (BJ Pharmac 1975:53; p. 217-224).
Since the average daily dose in man (for the anti-inflammatory activity) is 600 mg, the comparative efficacious dose in the rat is in the ratio of 12:1. More precisely, comparative evaluation with the other NSAID compounds was calculated as follows: 600 mg/die: 50 mg/kg = daily dose of reference NSAID in man: X [formula] where X represents the daily dose of the reference NSAID in rat. This criterion keeps into account the "real" activity ratio in man. In this work the "ratio to rat dosage" has also been included which keeps into account ratios homogeneous to the same animal species. To evaluate the "ratio to rat dosage" the ID50 has been determined using the carrageenin-induced oedema as inflammatory test.
In order to exacerbate possible side effects on the stomach the dosage of amtolmetin guacyl was quadruplicated.

[4] = test system: gastric mucosa; experiment: Histological evaluation of the gastric mucosa by an independent laboratory; conditions: single animals; oral gavage: amtolmetin guacyl 50 mg/kg, diclofenac 7.5 mg/kg, tolmetin 66.6 mg/kg
Protocol: In order to obtain a histological evaluation of the results obtained in our laboratories, an independent laboratory was provided with identical samples of the material evaluated by us, under totally blind conditions.
Controls received the vehicle only, also by oral gavage. 4 h after the final administration the animals were killed by ether overdose and the stomachs removed, rinsed in saline and immersed in formalin 4%.

[5] = test system: diuresis; experiment: Diuresis in normally hydrated rats; type: in vivo; conditions: normally hydrated rats treated orally for 8 consecutive days (figure 13)
Protocol: In the course of various studies conducted on animals to show the lack of renal impairment, a test was carried out to compare the diuresis in normally hydrated rats treated orally for 8 consecutive days with amtolmeting guacyl and diclofenac, which is also a NSAID.

[6] = test system: post-traumatic arthralgia; experiment: Clinical trials: analgesic properties in post-traumatic arthralgia; type: in vivo, man; conditions: Amtolmetin guacyl 600mgx2-daily, Diclofenac 50mgx2-daily, 15 patients each
Description: The same can be said in the treatment of post-traumatic arthralgia.

[7] = test system: isolated, perfused, immature rat stomach; experiment: Antisecretive activity in vitro, isolated perfused immature rat stomach; conditions: agonist Histamine 10^-4 M, antagonist 10^-4 M
Description: Male Wistar rats, 250±10 g b.w. (Charles River, Calco, Como, Italy), quarantined for five days prior to the beginning of the trial and divided into groups of 3 animals per cage, were used for determination of gastric lesions and of ID50 determination. Immature male Wistar rats, 30-45 g b.w. (Harlan Nossan, Milano) were used for the determination of the antisecretory effect on isolated rat stomach. The guinea-pigs used were the Dunkin Hartley guinea-pigs (Harlan Nossan, Milano, Italy).
At the beginning, the isolated, perfused, immature rat stomach, treated externally with the study product, was used. We preferred to use the isolated stomach in toto rather than strips (B.R. No. 18, 19 and 20) in order not to exclude a section of the stomach (the antrum), unimportant for acid secretion but very important for the secretion of bicarbonates and bioactive peptides (b.r. No. 21, 22). The results were encouraging, since amtolmetin guacyl inhibited acid production stimulated by the three classic agonists (histamine, acetilcholine and gastrin) both using varying doses of agonist or varying doses of amtolmetin guacyl (Table 5).
The results are expressed as mean±S.E.

In the case of `CN1C(C(=O)Nc2ccccn2)=C(O)c2ccccc2S1(=O)=O` [Piroxicam, piroxicam], the “Ratio to rat dosage (mg/kg) (ID50 mg/kg x5)” value [1] is reported as 13.8 mg/kg and the “protection against bone loss” value [2] is reported as “greatest protection against bone loss”.
For `Cc1ccc(C(=O)c2ccc(CC(=O)O)n2C)cc1` [Tolmetin, tolmetin], the Gastrolesive index [3] was 79.7, the Macroscopic findings [4] was 3 and 0 (2×) and the Microscopic findings [4] was 2+ and 0+ and 1+.
In the case of `O=C(O)Cc1ccccc1Nc1c(Cl)cccc1Cl` [Diclofenac sodium, diclofenac sodium], the “Ratio to rat dosage (mg/kg) (ID50 mg/kg x5)” value [1] is reported as 15.8 mg/kg, the diuresis [5] is reported as “clear decrease” and the “further gastric findings (table footnotes)” value [3] is reported as “Each value is the mean of 6 rats. ^a)Diffuse haemorrhagic gastritis was also present”. The “Duration” value [6] was 180 min, the “Latency” value [6] was 20 min and the “Max. time effect” value [6] was 60 min. For the same molecule, the Macroscopic findings [4] was 2 and 4 and 7 and the Microscopic findings [4] was 2* and 3* and 9*.
With `CN/C(=N/CCSCc1nc[nH]c1C)NC#N` [Cimetidine, cimetidine, reference compound] the “% inhib.” value [7] was 78.6% and the “Δacid” value ([7]; mean±S.E.) was 14.3 ± 7.2 nmol/min.
